Test results taken from US20260199497A1, “GLUCOCORTICOID RECEPTOR AGONIST AND CONJUGATE THEREOF” (priority 2023, published 2026).

What was measured:
glucocorticoid receptor [1] = molecular target: T1, glucocorticoid receptor (Homo sapiens, UniProt P04150); test: GRE reporter gene test (Experiment Example 1), HEK293T cells transfected with pGL4.35 and p-Bind GR Vector; type: cell-based; conditions: for EC50: GRE reporter gene, HEK293T cells, 18-20 h incubation; for Emax: HEK-293T, read-out: Emax; for maximum agonistic effect (Emax): compared with dexamethasone, transfected HEK293T cells
T1 sequence (P04150 524-777 limits assumed): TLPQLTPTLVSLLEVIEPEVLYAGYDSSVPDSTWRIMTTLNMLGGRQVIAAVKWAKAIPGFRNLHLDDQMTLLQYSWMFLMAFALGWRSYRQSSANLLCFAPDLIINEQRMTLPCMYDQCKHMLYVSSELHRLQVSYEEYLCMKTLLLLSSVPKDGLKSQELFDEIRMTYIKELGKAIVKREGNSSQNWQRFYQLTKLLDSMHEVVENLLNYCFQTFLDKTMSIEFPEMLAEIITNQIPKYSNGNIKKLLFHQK
Description: The compound of the present invention to be tested was formulated into a 10 mM solution with DMSO, and then subjected to 4-fold dilution at 10 concentration points using DMSO to obtain a 1000× mother liquor, with a final test concentration of 0.000038-10 μM.
(§1) HEK293T cells (ATCC) were plated in a 100 mm culture dish at a density of 6*10^6 cells/culture dish, and cultured for 16 h under the conditions of 37° C. and 5% CO2. Plasmids (pGL4.35 [luc2P/9XGAL4 UAS/Hygro], p-Bind GR Vector, Promega) and Lipofectamine® 3000 (Invitrogen) were mixed, added into the culture dish, and then incubated for 5-6 h under the conditions of 37° C. and 5% CO2.
In a 384-well plate (PerkinElmer), 25 nL of the compound mother liquor was added, and then HEK293T cells transfected with plasmids were added at a density of 18000 cells/well. The cells were incubated for 18-20 h under the conditions of 37° C. and 5% CO2.
After the incubation was ended, 25 μL of britelite plus luciferase assay reagent (PerkinElmer) was added, and then reading was performed using an Envision 2105 multiplate reader (PerkinElmer).
(§2) The activity was calculated using the following formula, % activity=100*(signal of compound well−average signal of negative control well)/(average signal of positive control well−average signal of negative control well). […] Fitting calculation of EC50 was performed on % activity and the logarithmic concentration of the compound using Graphpad 8.0, Y=Bottom+(Top−Bottom)/(1+10^((Log EC50−X)*HillSlope)), wherein Y is % activity, and X is the logarithmic concentration of the compound.

glucocorticoid receptor [2] = molecular target: T1, glucocorticoid receptor; test: GRE reporter gene test (Experiment Example 2), HEK293T cells transfected with pGL4.35 and p-Bind GR Vector; type: cell-based; conditions: for EC50: GRE reporter gene, HEK293T cells, 18-20 h incubation; for Emax: HEK-293T; for maximum agonistic activity (Emax): compared with dexamethasone, transfected HEK293T cells
Description: The compound of the present invention to be tested was formulated into a 1 mM solution with DMSO, and then subjected to 4-fold dilution at 10 concentration points using DMSO to obtain a 1000× mother liquor, with a final test concentration of 0.0000038-1 μM.
as §1
In a 384-well plate (PerkinElmer), 25 nL of the compound mother liquor was added, and then HEK293T cells transfected with plasmids were added at a density of 18000 cells/well (25 μL). The cells were incubated for 18-20 h under the conditions of 37° C. and 5% CO2.
After the incubation was ended, 25 μL of britelite plus luciferase assay reagent (PerkinElmer) was added, and then reading was performed using an Envision 2105 multimode reader (PerkinElmer).
as §2

Row | SMILES | EC50 (glucocorticoid receptor [1]) | Emax (glucocorticoid receptor [1]) | EC50 (glucocorticoid receptor [2]) | Emax (glucocorticoid receptor [2]) | maximum agonistic activity (Emax) (glucocorticoid receptor [2]) | maximum agonistic effect (Emax) (glucocorticoid receptor [1])
1 | C[C@@H]1C[C@H]2[C@@H]3C[C@H](F)C4=CC(=O)C=C[C@]4(C)[C@@]3(F)[C@@H](O)C[C@]2(C)[C@@]1(OC(=O)c1ccnc(N)c1)C(=O)SCF [P-1, (6S,8S,9R,10S,11S,13S,14S,16R,17R)-6,9-difluoro-17-(((fluoromethyl)thio)carbonyl)-11-hydroxy-10,13,16-trimethyl-3-oxo-6,7,8,9,10,11,12,13,14,15,16,17-dodecahydro-3H-cyclopenta[a]phenanthren-17-yl 2-aminoisonicotinate] | 1400 pM | 91.2% |  |  |  | 
2 | C[C@@H]1C[C@H]2[C@@H]3C[C@H](F)C4=CC(=O)C=C[C@]4(C)[C@@]3(F)[C@@H](O)C[C@]2(C)[C@@]1(OC(=O)c1ccc(CO)cc1)C(=O)SCF [B-31, (6S,8S,9R,10S,11S,13S,14S,16R,17R)-6,9-difluoro-17-(((fluoromethyl)thio)carbonyl)-11-hydroxy-10,13,16-trimethyl-3-oxo-6,7,8,9,10,11,12,13,14,15,16,17-dodecahydro-3H-cyclopenta[a]phenanthren-17-yl 4-(hydroxymethyl)benzoate] |  |  | 320 pM | 92.5% |  | 
3 | CC(O)C(=O)O[C@]1(C(=O)SCF)[C@H](C)C[C@H]2[C@@H]3C[C@H](F)C4=CC(=O)C=C[C@]4(C)[C@@]3(F)[C@@H](O)C[C@@]21C (stereo partly drawn) [D-9] |  |  | 3600 pM | 146% | superior to dexamethasone | 
4 | C[C@]12C=CC(=O)C=C1CC[C@H]1[C@@H]3CC[C@](OC(=O)c4ccc(F)c(N)c4)(C(=O)SCF)[C@@]3(C)C[C@H](O)[C@@]12F [A-2] |  |  | 1700 pM | 93.7% |  | 
5 | C[C@@H]1C[C@H]2[C@@H]3C[C@H](F)C4=CC(=O)C=C[C@]4(C)[C@@]3(F)[C@@H](O)C[C@]2(C)[C@@]1(OC(=O)c1ccc(F)c(N)c1)C(=O)OCCl [O-3, chloromethyl (6S,8S,9R,10S,11S,13S,14S,16R,17R)-17-((3-amino-4-fluorobenzoyl)oxy)-6,9-difluoro-11-hydroxy-10,13,16-trimethyl-3-oxo-6,7,8,9,10,11,12,13,14,15,16,17-dodecahydro-3H-cyclopenta[a]phenanthrene-17-carboxylate] | 400 pM | 87.7% |  |  |  | 
6 | C[C@@H]1C[C@H]2[C@@H]3C[C@H](F)C4=CC(=O)C=C[C@]4(C)[C@@]3(F)[C@@H](O)C[C@]2(C)[C@@]1(OC(=O)c1cccc(O)c1)C(=O)SCF [B-1] | 190 pM | 105% |  |  |  | superior to dexamethasone
7 | C[C@@H]1C[C@H]2[C@@H]3C[C@H](F)C4=CC(=O)C=C[C@]4(C)[C@@]3(F)[C@@H](O)C[C@]2(C)[C@@]1(OC(=O)/C=C/c1ccc(F)c(N)c1)C(=O)SCF [E-3] | 1200 pM | 97.2% |  |  |  | 
8 | C[C@]12C=CC(=O)C=C1[C@@H](F)C[C@H]1[C@@H]3CC[C@](OC(=O)/C=C/c4ccc(F)c(N)c4)(C(=O)SCF)[C@@]3(C)C[C@H](O)[C@@]12F [E-4] |  |  | 1000 pM | 84.8% |  | 
9 | C[C@@H]1C[C@H]2[C@@H]3C[C@H](F)C4=CC(=O)C=C[C@]4(C)[C@@]3(F)[C@@H](O)C[C@]2(C)[C@@]1(OC(=O)c1ccccc1O)C(=O)SCF [B-25] | 130 pM | 85.6% |  |  |  | 
10 | C[C@@H]1C[C@H]2[C@@H]3C[C@H](F)C4=CC(=O)C=C[C@]4(C)[C@@]3(F)[C@@H](O)C[C@]2(C)[C@@]1(OC(=O)[C@H]1C[C@@H]1c1ccc(N)cc1)C(=O)SCF [C-1] | 900 pM | 102% |  |  |  | superior to dexamethasone
11 | C[C@@H]1C[C@H]2[C@@H]3C[C@H](F)C4=CC(=O)C=C[C@]4(C)[C@@]3(F)[C@@H](O)C[C@]2(C)[C@@]1(OC(=O)c1ccc(F)c(N)c1)C(=O)OCF [O-1, fluoromethyl (6S,8S,9R,10S,11S,13S,14S,16R,17R)-17-((3-amino-4-fluorobenzoyl)oxy)-6,9-difluoro-11-hydroxy-10,13,16-trimethyl-3-oxo-6,7,8,9,10,11,12,13,14,15,16,17-dodecahydro-3H-cyclopenta[a]phenanthrene-17-carboxylate] | 200 pM | 87.3% |  |  |  | 
12 | C[C@@H]1C[C@H]2[C@@H]3C[C@H](F)C4=CC(=O)C=C[C@]4(C)[C@@]3(F)[C@@H](O)C[C@]2(C)[C@@]1(OC(=O)c1ccco1)C(=O)SCCO [F-21, (6S,8S,9R,10S,11S,13S,14S,16R,17R)-6,9-difluoro-11-hydroxy-17-((2-hydroxyethyl)thio)carbonyl-10,13,16-trimethyl-3-oxo-6,7,8,9,11,12,13,14,15,16,17-dodecahydro-3H-cyclopenta[a]phenanthren-17-yl furan-2-carboxylate] |  |  | 1300 pM | 139% | superior to dexamethasone | 
13 | C[C@@H]1C[C@H]2[C@@H]3C[C@H](F)C4=CC(=O)C=C[C@]4(C)[C@@]3(F)[C@@H](O)C[C@]2(C)[C@@]1(OC(=O)c1ccc(O)cc1)C(=O)SCF [B-13] | 270 pM | 100% |  |  |  | 
14 | CC(O)CC(=O)O[C@]1(C(=O)SCF)[C@H](C)C[C@H]2[C@@H]3C[C@H](F)C4=CC(=O)C=C[C@]4(C)[C@@]3(F)[C@@H](O)C[C@@]21C (stereo partly drawn) [D-11] |  |  | 800 pM | 115% | superior to dexamethasone | 
15 | C[C@@H]1C[C@H]2[C@@H]3C[C@H](F)C4=CC(=O)C=C[C@]4(C)[C@@]3(F)[C@@H](O)C[C@]2(C)[C@@]1(OC(=O)c1ccc(CO)o1)C(=O)SCF [F-13, (6S,8S,9R,10S,11S,13S,14S,16R,17R)-6,9-difluoro-17-(((fluoromethyl)thio)carbonyl)-11-hydroxy-10,13,16-trimethyl-3-oxo-6,7,8,9,10,11,12,13,14,15,16,17-dodecahydro-3H-cyclopenta[a]phenanthren-17-yl 5-(hydroxymethyl)furan-2-carboxylate] |  |  | 1300 pM | 104% |  | 
16 | C[C@@H]1C[C@H]2[C@@H]3C[C@H](F)C4=CC(=O)C=C[C@]4(C)[C@@]3(F)[C@@H](O)C[C@]2(C)[C@@]1(OC(=O)c1ccc(F)cc1)C(=O)SCF [H-5] | 160 pM | 107% |  |  |  | superior to dexamethasone
17 | C[C@@H]1C[C@H]2[C@@H]3C[C@H](F)C4=CC(=O)C=C[C@]4(C)[C@@]3(F)[C@@H](O)C[C@]2(C)[C@@]1(OC(=O)C[C@@H](C)O)C(=O)SCF [D-19, (6S,8S,9R,10S,11S,13S,14S,16R,17R)-6,9-difluoro-17-(((fluoromethyl)thio)carbonyl)-11-hydroxy-10,13,16-trimethyl-3-oxo-6,7,8,9,10,11,12,13,14,15,16,17-dodecahydro-3H-cyclopenta[a]phenanthren-17-yl (R)-3-hydroxybutyrate] |  |  | 1200 pM | 120% | superior to dexamethasone | 
18 | C[C@@H]1C[C@H]2[C@@H]3C[C@H](F)C4=CC(=O)C=C[C@]4(C)[C@@]3(F)[C@@H](O)C[C@]2(C)[C@@]1(OC(=O)c1cc(CO)co1)C(=O)SCF [F-9, (6S,8S,9R,10S,11S,13S,14S,16R,17R)-6,9-difluoro-17-(((fluoromethyl)thio)carbonyl)-11-hydroxy-10,13,16-trimethyl-3-oxo-6,7,8,9,10,11,12,13,14,15,16,17-dodecahydro-3H-cyclopenta[a]phenanthren-17-yl 4-(hydroxymethyl)furan-2-carboxylate] |  |  | 400 pM | 134% | superior to dexamethasone | 
19 | C[C@@H]1C[C@H]2[C@@H]3C[C@H](F)C4=CC(=O)C=C[C@]4(C)[C@@]3(F)[C@@H](O)C[C@]2(C)[C@@]1(OC(=O)c1cccc(CO)c1)C(=O)SCF [B-35, (6S,8S,9R,10S,11S,13S,14S,16R,17R)-6,9-difluoro-17-(((fluoromethyl)thio)carbonyl)-11-hydroxy-10,13,16-trimethyl-3-oxo-6,7,8,9,10,11,12,13,14,15,16,17-dodecahydro-3H-cyclopenta[a]phenanthren-17-yl 3-(hydroxymethyl)benzoate] |  |  | 2400 pM | 66.2% |  | 
20 | C[C@]12C=CC(=O)C=C1[C@@H](F)C[C@H]1[C@@H]3CC[C@](OC(=O)c4cc(CO)co4)(C(=O)SCF)[C@@]3(C)C[C@H](O)[C@@]12F [F-10] |  |  | 600 pM | 150% | superior to dexamethasone | 
